We go through nine molecules from ChEMBL document CHEMBL5729461, “CDPK1 inhibitors, compositions, and methods related thereto” (2022).

The target in this test is T1, Calmodulin-domain protein kinase 1 (Toxoplasma gondii, UniProt Q9BJF5).
T1 sequence (Q9BJF5 whole entry): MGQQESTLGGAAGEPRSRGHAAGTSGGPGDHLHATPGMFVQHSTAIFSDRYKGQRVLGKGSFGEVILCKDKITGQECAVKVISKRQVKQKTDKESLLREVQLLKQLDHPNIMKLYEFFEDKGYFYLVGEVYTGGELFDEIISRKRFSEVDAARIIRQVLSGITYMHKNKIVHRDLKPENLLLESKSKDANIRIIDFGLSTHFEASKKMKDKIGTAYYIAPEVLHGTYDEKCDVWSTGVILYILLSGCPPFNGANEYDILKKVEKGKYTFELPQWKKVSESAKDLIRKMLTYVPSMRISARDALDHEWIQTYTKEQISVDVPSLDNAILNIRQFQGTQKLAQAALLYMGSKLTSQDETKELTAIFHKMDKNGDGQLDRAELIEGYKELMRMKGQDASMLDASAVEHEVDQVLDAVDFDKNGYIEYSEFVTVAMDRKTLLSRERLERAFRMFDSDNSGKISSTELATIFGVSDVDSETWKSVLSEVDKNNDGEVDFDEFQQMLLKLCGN
Description: Inhibition Assay: Certain of the compounds prepared as described above were assayed to determine their IC50 for inhibition of T. gondii CDPK1 (tgCDPK1). At least three independent replicates of the assay were conducted for each compound tested.
For the molecule `COc1ccnc(Oc2nn([C@H]3C[C@@H](O)C3)c3ncnc(N)c23)c1`, the IC50 was 37.1 nM.

On to `Nc1ncnc2c1c(Cc1cccc(F)c1)nn2[C@H]1C[C@H](F)C1`, for which the IC50 was found to be 14.2 nM.

With `Nc1ncnc2c1c(Cc1cccc(C(F)(F)F)c1)nn2[C@H]1C[C@H](O)C1`, the IC50 was 36 nM.

In turn, `Nc1ncnc2c1c(Cc1cccc(Cl)c1)nn2[C@H]1C[C@@H](F)C1` came in with a half-maximal inhibitory concentration (IC50) of 7.05 nM. Against the preceding molecule, the IC50 is about 5.1-fold lower.

`N#Cc1cccc(Cc2nn([C@H]3C[C@H](F)C3)c3ncnc(N)c23)c1`: half-maximal inhibition (IC50) required 45.9 nM. Compared with the last molecule, the IC50 is about 6.5-fold higher.

The molecule `Nc1ncnc2c1c(Cc1cccc(F)c1)cn2[C@H]1C[C@H](O)C1` displayed an IC50 of 28.3 nM. This IC50 is about 1.6-fold lower than that of the molecule before.

`Nc1ncnc2c1c(Cc1cccc(Cl)c1)nn2[C@H]1C[C@H](O)C1`: the IC50 is 8.87 nM.

In the case of `Nc1ncnc2c1c(Cc1cccc(F)c1)nn2[C@H]1C[C@H](O)C1`, the IC50 worked out at 28.3 nM.

On to `NC(=O)c1ccnc(Oc2nn([C@H]3C[C@H](F)C3)c3ncnc(N)c23)c1`, for which the IC50 came out at 69.7 nM.
